Laboratory results reported in patent publication US20260158046A1, “TREATMENT OF NEURODEGENERATIVE DISORDERS WITH DOXYCYCLINE ALONE OR IN COMBINATION WITH LEVODOPA” (Biohaven Therapeutics Ltd., priority 2023, published 2026).

What was measured:
Format in all cases: in vivo, human
seborrheic dermatitis = assay: Case report, Patient A: seborrheic dermatitis under doxycycline
Description: (§1) Patient A is a person diagnosed with PD approximately one and a half years earlier and treated with levodopa. […] The patient also experienced intermittent irritable bowel disorder symptoms.

[1] = Case report, Patient A: tolerability of doxycycline; conditions: after two additional months on doxycycline
Description: as §1

PD tremor = assay: Case report, Patient A: PD tremor under doxycycline added to levodopa; conditions: prior to initiation of doxycycline
Description: as §1

## C[C@H]1c2cccc(O)c2C(=O)C2=C(O)[C@]3(O)C(=O)C(C(N)=O)=C(O)[C@@H](N(C)C)[C@@H]3[C@@H](O)[C@@H]21 [doxycycline, Doxycycline]
Seborrheic dermatitis; PD patient on levodopa, doxycycline 100 mg tablet once a day, first course
  time to resolution of seborrheic dermatitis: ≤ 3 weeks
Seborrheic dermatitis; doxycycline discontinued after approximately 8 weeks (first de-challenge)
  time to recurrence of seborrheic dermatitis after discontinuation: ≤ 2 weeks
[1]
  adverse event leading to stop of treatment: nausea

## N[C@@H](Cc1ccc(O)c(O)c1)C(=O)O [levodopa, Levodopa]
PD tremor
  interval between required levodopa dose increases (worsening PD, most notably tremor): ~3 months
